pIC50, pKi: −log10 of the molar value. The source made the active and inactive calls. No cut-off for these calls is given here.
Columns and labels:
[1] = target: T1, Bromodomain-containing protein 3 (Homo sapiens, UniProt Q15059); test: Binding affinity to recombinant human BRD3 BD1 (24 to 144 residues) assessed as inhibition constant by fluorescence polarization binding assay
[2] = target: T1, Bromodomain-containing protein 3; test: Binding affinity to recombinant human BRD3 BD2 (306 to 417 residues) assessed as inhibition constant by fluorescence polarization binding assay
[3] = tested on: MM1.S; test: Antiproliferative activity against human MM1.S cells assessed as cell growth inhibition measured after 4 days by CellTitre-Glo assay; assay type: functional, cell-based; settings: 96 h
[4] = tested on: MV4-11; test: Antiproliferative activity against human MV4-11 cells assessed as cell growth inhibition measured after 3 days by CellTitre-Glo assay; assay type: functional, cell-based; settings: MV4-11, 72 h
[5] = target: T2, Protein cereblon/Bromodomain-containing protein 4 (Homo sapiens) (UniProt O60885+Q96SW2); test: PROTAC activity at CRBN/BRD4-L in human MM1.S cells assessed as induction of protein degradation at 2 nM measured after 24 hrs by Western blot analysis; assay type: cell-based
T2 sequence (Q96SW2 whole entry, looked up, other chains not shown): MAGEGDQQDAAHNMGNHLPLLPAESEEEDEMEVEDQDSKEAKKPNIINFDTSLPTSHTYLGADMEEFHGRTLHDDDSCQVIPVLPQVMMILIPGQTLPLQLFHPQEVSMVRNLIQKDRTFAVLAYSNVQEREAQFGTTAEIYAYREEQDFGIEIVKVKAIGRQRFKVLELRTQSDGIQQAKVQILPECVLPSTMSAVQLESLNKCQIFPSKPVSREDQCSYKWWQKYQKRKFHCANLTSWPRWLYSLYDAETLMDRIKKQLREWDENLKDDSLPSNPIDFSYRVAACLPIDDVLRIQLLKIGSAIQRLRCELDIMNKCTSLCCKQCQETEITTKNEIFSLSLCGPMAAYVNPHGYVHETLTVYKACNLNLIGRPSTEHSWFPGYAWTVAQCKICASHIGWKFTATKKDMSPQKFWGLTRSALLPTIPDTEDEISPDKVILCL

[6] = target: T3, Protein cereblon/Bromodomain-containing protein 3 (Homo sapiens) (UniProt Q15059+Q96SW2); test: PROTAC activity at CRBN/BRD3 in human MM1.S cells assessed as induction of protein degradation at 2 nM measured after 24 hrs by Western blot analysis; assay type: cell-based
T3 sequence (Q15059 2-726 limits assumed): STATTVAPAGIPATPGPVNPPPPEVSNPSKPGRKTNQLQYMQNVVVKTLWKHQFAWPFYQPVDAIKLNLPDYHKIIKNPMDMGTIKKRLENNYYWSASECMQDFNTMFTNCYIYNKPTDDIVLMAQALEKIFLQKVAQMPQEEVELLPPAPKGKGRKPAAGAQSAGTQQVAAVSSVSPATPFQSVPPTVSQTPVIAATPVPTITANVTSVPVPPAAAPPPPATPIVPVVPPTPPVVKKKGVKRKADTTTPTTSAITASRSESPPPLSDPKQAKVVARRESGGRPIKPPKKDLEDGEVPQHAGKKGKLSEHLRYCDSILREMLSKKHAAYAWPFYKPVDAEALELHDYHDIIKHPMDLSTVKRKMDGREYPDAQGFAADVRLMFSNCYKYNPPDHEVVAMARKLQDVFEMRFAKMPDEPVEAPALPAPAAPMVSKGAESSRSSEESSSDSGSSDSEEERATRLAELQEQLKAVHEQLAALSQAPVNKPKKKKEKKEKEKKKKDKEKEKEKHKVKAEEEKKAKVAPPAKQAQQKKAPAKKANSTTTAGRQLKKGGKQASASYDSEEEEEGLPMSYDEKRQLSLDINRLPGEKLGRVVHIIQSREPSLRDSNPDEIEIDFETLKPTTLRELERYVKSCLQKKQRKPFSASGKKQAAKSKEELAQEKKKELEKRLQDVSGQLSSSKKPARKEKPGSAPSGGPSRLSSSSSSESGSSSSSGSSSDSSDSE
T3 sequence (Q96SW2 whole entry partner): as the sequence (Q96SW2 whole entry, looked up, other chains not shown) above

[7] = target: Protein cereblon/Bromodomain-containing protein 2 (Homo sapiens) (UniProt P25440+Q96SW2); test: PROTAC activity at CRBN/BRD2 in human MM1.S cells assessed as induction of protein degradation at 2 to 10 nM measured after 24 hrs by Western blot analysis; assay type: cell-based; settings: dose 2-10 nM
Protein cereblon/Bromodomain-containing protein 2 (Homo sapiens), sequence (P25440 whole entry, looked up): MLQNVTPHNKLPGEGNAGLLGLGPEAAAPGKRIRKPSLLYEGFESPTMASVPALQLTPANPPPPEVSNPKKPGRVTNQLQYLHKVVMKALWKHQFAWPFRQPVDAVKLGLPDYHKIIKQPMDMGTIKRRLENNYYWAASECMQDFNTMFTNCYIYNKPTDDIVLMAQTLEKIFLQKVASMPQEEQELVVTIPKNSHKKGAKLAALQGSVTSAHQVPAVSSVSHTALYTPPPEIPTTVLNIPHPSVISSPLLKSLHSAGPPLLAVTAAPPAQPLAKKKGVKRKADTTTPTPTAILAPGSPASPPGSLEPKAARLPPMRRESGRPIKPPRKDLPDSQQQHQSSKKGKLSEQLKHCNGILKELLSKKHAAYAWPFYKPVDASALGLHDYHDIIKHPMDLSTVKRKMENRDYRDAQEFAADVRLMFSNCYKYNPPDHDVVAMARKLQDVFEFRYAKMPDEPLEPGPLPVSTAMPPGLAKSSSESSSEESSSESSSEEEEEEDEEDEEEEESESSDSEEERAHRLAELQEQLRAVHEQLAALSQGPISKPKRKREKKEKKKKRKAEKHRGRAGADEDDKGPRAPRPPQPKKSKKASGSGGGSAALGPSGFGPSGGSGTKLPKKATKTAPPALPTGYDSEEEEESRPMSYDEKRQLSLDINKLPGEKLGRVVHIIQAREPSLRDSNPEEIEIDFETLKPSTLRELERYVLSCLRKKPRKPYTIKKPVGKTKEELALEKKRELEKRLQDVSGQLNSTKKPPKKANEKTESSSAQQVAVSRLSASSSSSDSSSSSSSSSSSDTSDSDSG
Protein cereblon/Bromodomain-containing protein 2 (Homo sapiens), sequence (Q96SW2 whole entry, looked up): as the sequence (Q96SW2 whole entry, looked up, other chains not shown) above

[8] = target: T3, Protein cereblon/Bromodomain-containing protein 3 (Homo sapiens); test: PROTAC activity at CRBN/BRD3 in human MM1.S cells assessed as induction of protein degradation at 2 to 10 nM measured after 24 hrs by Western blot analysis; assay type: cell-based; settings: dose 2-10 nM
[9] = target: T2, Protein cereblon/Bromodomain-containing protein 4 (Homo sapiens); test: PROTAC activity at CRBN/BRD4-L in human MM1.S cells assessed as induction of protein degradation at 2 to 10 nM measured after 24 hrs by Western blot analysis; assay type: cell-based; settings: dose 2-10 nM
[10] = target: T2, Protein cereblon/Bromodomain-containing protein 4 (Homo sapiens); test: PROTAC activity at CRBN/BRD4-S in human MM1.S cells assessed as induction of protein degradation at 2 to 10 nM measured after 24 hrs by Western blot analysis; assay type: cell-based; settings: dose 2-10 nM
[11] = tested on: MCF7; test: Antiproliferative activity against human MCF7 cells assessed as cell growth inhibition measured after 4 days by CCK-8 assay; assay type: functional, cell-based; settings: MCF7, 96 h
[12] = tested on: HGC-27; test: Antiproliferative activity against human HGC-27 cells assessed as cell growth inhibition measured after 4 days by CCK-8 assay; assay type: functional, cell-based; settings: HGC-27, 96 h
[13] = tested on: A549; test: Antiproliferative activity against human A549 cells assessed as cell growth inhibition measured after 4 days by CCK-8 assay; assay type: functional, cell-based; settings: A549, 96 h
[14] = tested on: HeLa; test: Antiproliferative activity against human HeLa cells assessed as cell growth inhibition measured after 4 days by CCK-8 assay; assay type: functional, cell-based; settings: 96 h
[15] = tested on: HepG2; test: Antiproliferative activity against human HepG2 cells assessed as cell growth inhibition measured after 4 days by CCK-8 assay; assay type: functional, cell-based; settings: HepG2, 96 h

T1 sequence (Q15059 whole entry, the tested form may be a part): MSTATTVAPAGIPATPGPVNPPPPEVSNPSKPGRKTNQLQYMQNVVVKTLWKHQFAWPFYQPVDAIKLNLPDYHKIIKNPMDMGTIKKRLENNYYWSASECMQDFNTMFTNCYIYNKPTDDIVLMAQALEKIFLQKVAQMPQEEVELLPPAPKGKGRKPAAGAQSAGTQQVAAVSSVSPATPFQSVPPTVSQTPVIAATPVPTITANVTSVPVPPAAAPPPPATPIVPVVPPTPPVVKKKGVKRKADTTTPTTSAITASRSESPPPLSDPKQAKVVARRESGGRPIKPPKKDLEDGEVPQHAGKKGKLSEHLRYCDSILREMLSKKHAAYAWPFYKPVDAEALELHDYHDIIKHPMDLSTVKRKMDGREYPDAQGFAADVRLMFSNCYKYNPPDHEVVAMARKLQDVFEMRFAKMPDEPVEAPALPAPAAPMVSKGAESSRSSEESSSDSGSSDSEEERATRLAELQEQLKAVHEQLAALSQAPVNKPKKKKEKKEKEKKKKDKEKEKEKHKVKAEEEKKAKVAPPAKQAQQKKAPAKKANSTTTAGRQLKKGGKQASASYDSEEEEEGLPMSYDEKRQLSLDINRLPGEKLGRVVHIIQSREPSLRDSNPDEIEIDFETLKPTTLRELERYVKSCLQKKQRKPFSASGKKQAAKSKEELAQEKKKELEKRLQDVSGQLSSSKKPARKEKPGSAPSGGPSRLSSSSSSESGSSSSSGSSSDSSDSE

SMILES | pKi [1] | pKi [2] | pIC50 [3] | pIC50 [4] | Activity [5] | Activity [6] | Activity [7] | Activity [8] | Activity [9] | Activity [10] | pIC50 [11] | pIC50 [12] | pIC50 [13] | pIC50 [14] | pIC50 [15]
Cc1nnc2n1-c1ccc(-c3ccc(CNCCCCCc4cccc5c4CN(C4CCC(=O)NC4=O)C5=O)cc3)cc1C(Nc1ccc(Cl)cc1)CC2 (stereo unspecified) | 7.81 | 8.27 | 6.09 | 6.63 | Active | Active | – | – | – | – | – | – | – | – | –
Cc1nnc2n1-c1ccc(-c3cnn(CC(=O)NCCCCCC#Cc4cccc5c4CN(C4CCC(=O)NC4=O)C5=O)c3)cc1C(Nc1ccc(Cl)cc1)CC2 (stereo unspecified) | 7.48 | 8.20 | 5.80 | 6.75 | – | – | inactive | inactive | inactive | inactive | – | – | – | – | –
Cc1nnc2n1-c1ccc(-c3cnn(CC(=O)NCCCC#Cc4cccc5c4CN(C4CCC(=O)NC4=O)C5=O)c3)cc1C(Nc1ccc(Cl)cc1)CC2 (stereo unspecified) | 7.42 | 8.30 | 5.09 | 5.53 | – | – | inactive | inactive | inactive | inactive | – | – | – | – | –
Cc1nnc2n1-c1ccc(-c3ccc(CNCCCCCC#Cc4cccc5c4CN(C4CCC(=O)NC4=O)C5=O)cc3)cc1C(Nc1ccc(Cl)cc1)CC2 (stereo unspecified) | 7.82 | 8.23 | 6.81 | 7.70 | Active | Active | – | – | – | – | – | – | – | – | –
Cc1nnc2n1-c1ccc(-c3ccc(CNCC#Cc4cccc5c4CN(C4CCC(=O)NC4=O)C5=O)cc3)cc1C(Nc1ccc(Cl)cc1)CC2 (stereo unspecified) | 7.61 | 8.32 | 5.58 | 6.16 | – | – | – | – | – | – | – | – | – | – | –
Cc1nnc2n1-c1ccc(-c3ccc(CNCCCCC#Cc4cccc5c4CN(C4CCC(=O)NC4=O)C5=O)cc3)cc1C(Nc1ccc(Cl)cc1)CC2 (stereo unspecified) | 7.92 | 8.33 | 6.80 | 7.15 | – | – | – | – | – | – | – | – | – | – | –
Cc1nnc2n1-c1ccc(-c3ccc(CNCCCCCCCc4cccc5c4CN(C4CCC(=O)NC4=O)C5=O)cc3)cc1C(Nc1ccc(Cl)cc1)CC2 (stereo unspecified) | 8.10 | 8.65 | 7.56 | 9.12 | Active | Active | – | – | – | – | – | – | – | – | –
Cc1nnc2n1-c1ccc(-c3ccc(CNCCCCc4cccc5c4CN(C4CCC(=O)N(C)C4=O)C5=O)cc3)cc1C(Nc1ccc(Cl)cc1)CC2 (stereo unspecified) | 7.88 | 8.65 | 5.58 | 6.23 | – | – | – | – | – | – | 5.32 | 5.22 | 5.07 | 5.49 | 5.12
